Laboratory results from BindingDB's records for PubMed 2176210 (Ciba-Geigy, 1990).

Legend:
Test in all cases: Kinase Assay
[1] = molecular target: Protein kinase C alpha type (Homo sapiens, UniProt P17252)
[2] = molecular target: Tyrosine-protein kinase CSK (Homo sapiens, UniProt P41240)
[3] = molecular target: Tyrosine-protein kinase ABL1 (Homo sapiens, UniProt P00519)
[4] = molecular target: cAMP-dependent protein kinase catalytic subunit alpha (Homo sapiens, UniProt P17612)
[5] = molecular target: Epidermal growth factor receptor (Homo sapiens, UniProt P00533)
Sequence of Epidermal growth factor receptor (P00533 whole entry): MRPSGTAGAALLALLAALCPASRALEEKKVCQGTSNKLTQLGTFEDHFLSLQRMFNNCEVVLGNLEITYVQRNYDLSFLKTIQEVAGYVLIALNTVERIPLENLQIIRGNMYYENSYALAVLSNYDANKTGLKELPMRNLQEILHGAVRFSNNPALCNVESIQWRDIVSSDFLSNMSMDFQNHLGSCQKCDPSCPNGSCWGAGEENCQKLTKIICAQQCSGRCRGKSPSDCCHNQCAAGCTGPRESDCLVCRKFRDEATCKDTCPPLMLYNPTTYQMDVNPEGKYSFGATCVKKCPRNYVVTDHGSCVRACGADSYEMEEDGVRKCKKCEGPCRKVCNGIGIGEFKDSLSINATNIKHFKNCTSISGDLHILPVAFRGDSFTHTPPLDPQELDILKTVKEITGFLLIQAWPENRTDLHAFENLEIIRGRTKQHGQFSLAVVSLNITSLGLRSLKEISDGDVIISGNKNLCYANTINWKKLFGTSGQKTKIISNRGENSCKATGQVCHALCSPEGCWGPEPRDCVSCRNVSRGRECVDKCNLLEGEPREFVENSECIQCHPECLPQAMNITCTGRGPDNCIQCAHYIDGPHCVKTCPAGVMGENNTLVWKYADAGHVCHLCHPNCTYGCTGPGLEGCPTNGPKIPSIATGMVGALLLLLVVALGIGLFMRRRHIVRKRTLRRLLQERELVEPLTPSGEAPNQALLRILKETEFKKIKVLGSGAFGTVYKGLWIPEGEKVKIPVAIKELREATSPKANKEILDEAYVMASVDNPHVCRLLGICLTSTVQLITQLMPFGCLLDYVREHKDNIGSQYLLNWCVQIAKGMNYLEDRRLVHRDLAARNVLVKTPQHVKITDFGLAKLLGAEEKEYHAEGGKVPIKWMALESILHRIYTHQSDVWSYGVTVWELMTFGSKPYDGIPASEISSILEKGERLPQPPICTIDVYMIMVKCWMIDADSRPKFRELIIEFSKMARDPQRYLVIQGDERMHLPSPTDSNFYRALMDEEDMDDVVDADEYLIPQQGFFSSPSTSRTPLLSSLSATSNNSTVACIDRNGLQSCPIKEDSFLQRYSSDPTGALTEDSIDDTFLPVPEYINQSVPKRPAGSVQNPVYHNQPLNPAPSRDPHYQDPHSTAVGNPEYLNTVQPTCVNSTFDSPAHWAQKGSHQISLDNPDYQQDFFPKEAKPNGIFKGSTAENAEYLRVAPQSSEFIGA
Protocol: Determination of EGF receptor kinase activity was performed as described using A431 membranes as the enzyme source and agiotensin II as substrate.

Sequence of Tyrosine-protein kinase ABL1 (P00519 whole entry): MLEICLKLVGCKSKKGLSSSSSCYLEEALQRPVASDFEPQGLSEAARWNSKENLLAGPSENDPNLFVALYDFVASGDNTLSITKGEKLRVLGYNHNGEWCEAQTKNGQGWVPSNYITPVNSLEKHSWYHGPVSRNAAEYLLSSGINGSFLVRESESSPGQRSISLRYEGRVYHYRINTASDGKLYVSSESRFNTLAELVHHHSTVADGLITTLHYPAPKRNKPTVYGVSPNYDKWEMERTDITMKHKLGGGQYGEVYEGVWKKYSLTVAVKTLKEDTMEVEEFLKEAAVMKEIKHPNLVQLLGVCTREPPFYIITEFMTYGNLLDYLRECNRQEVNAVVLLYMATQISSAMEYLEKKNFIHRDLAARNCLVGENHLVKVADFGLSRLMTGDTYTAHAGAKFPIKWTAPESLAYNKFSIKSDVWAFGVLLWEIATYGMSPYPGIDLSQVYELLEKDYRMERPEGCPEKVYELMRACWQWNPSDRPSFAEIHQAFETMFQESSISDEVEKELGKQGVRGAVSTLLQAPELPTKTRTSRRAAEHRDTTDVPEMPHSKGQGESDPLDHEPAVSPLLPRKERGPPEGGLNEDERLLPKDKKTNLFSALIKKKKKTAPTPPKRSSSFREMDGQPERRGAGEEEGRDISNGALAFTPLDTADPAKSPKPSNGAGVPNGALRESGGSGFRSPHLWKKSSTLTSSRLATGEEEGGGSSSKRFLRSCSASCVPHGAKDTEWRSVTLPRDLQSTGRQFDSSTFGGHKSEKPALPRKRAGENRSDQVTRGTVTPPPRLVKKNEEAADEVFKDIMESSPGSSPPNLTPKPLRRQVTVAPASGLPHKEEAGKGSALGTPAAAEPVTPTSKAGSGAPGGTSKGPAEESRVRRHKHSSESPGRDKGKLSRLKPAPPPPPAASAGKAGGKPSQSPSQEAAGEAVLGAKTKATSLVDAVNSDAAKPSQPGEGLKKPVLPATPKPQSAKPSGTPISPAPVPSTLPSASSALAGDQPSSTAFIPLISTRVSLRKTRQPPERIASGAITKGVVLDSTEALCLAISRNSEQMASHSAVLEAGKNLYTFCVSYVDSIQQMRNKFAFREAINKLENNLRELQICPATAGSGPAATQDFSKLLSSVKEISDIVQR

| IC50 [1] | IC50 [2] | IC50 [3] | IC50 [4] | IC50 [5] | Structure (SMILES) |
| --- | --- | --- | --- | --- | --- |
| > 100 µM | > 100 µM | > 100 µM |  | > 50 µM | C=CCn1c(O)c(C)sc1=NN=c1scc(O)n1C [Thiazolidine-dione, 5] |
| > 100 µM | > 100 µM | > 100 µM |  | > 50 µM | C=C(C)Cn1c(O)c(C)sc1=NN=c1scc(O)n1C [Thiazolidine-dione, 6] |
| > 100 µM | > 100 µM | > 100 µM |  | > 100 µM | C=C(C)Cn1c(O)c(O)sc1=NN=c1scc(O)n1C [Thiazolidine-dione, 7] |
| > 100 µM |  | > 100 µM |  | > 50 µM | C=C(C)Cn1c(O)c(CO)sc1=NN=c1scc(O)n1C [Thiazolidine-dione, 8] |
| > 100 µM | > 100 µM | > 100 µM |  | > 100 µM | C=CCn1c(O)c(CC(=O)O)sc1=NN=c1scc(O)n1C [Thiazolidine-dione, 9] |
| > 100 µM | > 100 µM | > 100 µM | > 100 µM | 100 µM | C=C(C)Cn1c(O)c(OS(=O)O)sc1=NN=c1scc(O)n1C [Thiazolidine-dione, 10] |

More lines, now with the values behind:

| Structure (SMILES) | IC50 [1] | IC50 [2] | IC50 [3] | IC50 [4] | IC50 [5] |
| --- | --- | --- | --- | --- | --- |
| O=c1c(-c2ccc(O)cc2)coc2cc(O)cc(O)c12 [Prunetol] | 15 µM | > 50 µM | 39 µM | > 100 µM |  |
| C=CCN1C(=O)C(=C)SC1=NN=c1scc(O)n1C [Thiazolidine-dione, 1] | > 500 µM | 4 µM | > 100 µM | > 500 µM | 6 µM |
| C=C(C)CN1C(=O)C(=C)SC1=NN=c1scc(O)n1C [Thiazolidine-dione, 2] | > 100 µM | 3 µM | 100 µM | > 500 µM | 1 µM |
| C=C(C)Cn1c(O)c(CN(C)C)sc1=NN=c1scc(O)n1C [Thiazolidine-dione, 3] | 350 µM | 7 µM | > 100 µM | > 500 µM | 2 µM |
| C=C(C)Cn1c(O)csc1=NN=c1scc(O)n1C [Thiazolidine-dione, 4] | > 100 µM | > 100 µM | > 100 µM |  | > 50 µM |
